Laboratory results: US20250296971A1, “GASTRIC INHIBITORY PEPTIDE RECEPTOR LIGANDS” (priority 2021, published 2025)
*1 amine or outer side, *2 acyl side, *3 side chain or, on linkers, in order; H or OH if unused. Where a SMILES comes first, the peptide text is derived from it. Bridges are numbered along the chain shown (N, C = ends). [ ]: non-standard residue; d: D form. The star is where a group is joined. X5 = NC(=O)[C@H](CCCCNC(=O)CN1CCN(CC(=O)O)CCN(CC(=O)O)CCN(CC(=O)O)CC1)NC(=O)CCC(=O)NCCCOCCOCCOCCCN*; X3 = O=C(O)CN1CCN(CC(=O)O)CCN(CC(=O)NCCCOCCOCCOCCCN*)CCN(CC(=O)O)CC1; Trp(5-Cl) = N[C@@H](Cc1c[nH]c2ccc(Cl)cc12)C(=O)O; Pro(4S-NH2) = N[C@@H]1CN[C@H](C(=O)O)C1; Pro(4R-NH2) = N[C@H]1CN[C@H](C(=O)O)C1; mXylylene = c1cc(C[*:1])cc(C[*:2])c1; X7 = c1cc(CSCCN[*:2])cc(C[*:1])c1; Suc = O=C(CCC(=O)[*:2])[*:1]; Api = NC1(C(=O)O)CCNCC1; Aib = CC(C)(N)C(=O)O

Experiments:
[1] = molecular target: T1, human GIP receptor (bioGIPR) (Homo sapiens, UniProt P48546); assay: Surface plasmon resonance (SPR) based binding assay; conditions: Single Cycle Kinetic mode, 25° C.; for Kd: SPR, 1:1 Langmuir binding model, read-out: pKD Category (converted); for t1/2 Category: SPR dissociation half-life
T1 construct: Biotinylate extracellular of the human GIP receptor (bioGIPR, Proteros biostructures GmbH, lot #02/2b); purchased Proteros biostructures GmbH lot #02/2b
T1 sequence (P48546 22-138 limits assumed): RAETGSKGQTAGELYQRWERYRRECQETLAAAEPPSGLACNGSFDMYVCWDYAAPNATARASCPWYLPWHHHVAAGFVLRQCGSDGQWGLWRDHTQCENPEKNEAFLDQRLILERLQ
Procedure, shortened: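 Binding was measured at 25 °C by single-cycle kinetics against a reference flow cell, with blank-run and drift correction, after capturing biotinylated GIPR extracellular domain to ~3500 RU. Running buffer: HBST, 0.1% DMSO. A 1:1 Langmuir model gave kinetic rates, KD, t1/2 and pKD.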

[2] = molecular target: T2, GIPR (CHO-K1-hGIPR cells) (Homo sapiens, UniProt P48546); assay: FACS binding assay; conditions: competition with 20 nM GIP-057, 4° C., 1 hour, read-out: pIC50 Category (converted)
T2 construct: host or cells: CHO-K1
T2 sequence (P48546 22-466): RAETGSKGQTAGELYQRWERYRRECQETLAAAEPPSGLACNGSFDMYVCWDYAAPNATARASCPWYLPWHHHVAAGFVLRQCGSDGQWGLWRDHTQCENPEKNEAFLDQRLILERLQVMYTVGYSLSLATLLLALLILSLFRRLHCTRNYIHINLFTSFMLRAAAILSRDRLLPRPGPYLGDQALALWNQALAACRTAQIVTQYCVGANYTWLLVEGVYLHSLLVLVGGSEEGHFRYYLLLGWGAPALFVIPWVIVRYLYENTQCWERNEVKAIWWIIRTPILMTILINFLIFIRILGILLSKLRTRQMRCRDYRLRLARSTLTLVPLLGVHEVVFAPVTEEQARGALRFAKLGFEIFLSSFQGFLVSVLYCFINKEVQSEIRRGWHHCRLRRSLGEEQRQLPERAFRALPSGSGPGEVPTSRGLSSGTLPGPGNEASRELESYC
Procedure, shortened: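 Read-out: flow cytometric median fluorescence intensity, APC/Cy5 channel, plotted vs peptide conc.; 4PL fit → EC50/pEC50 or IC50/pIC50. Cells: CHO-K1-hGIPR, Accutase-detached, 500.000/mL in PBS + 1% FCS. Detection: APC-streptavidin 1 μg/mL, 30 min, on ice.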

Compound | Kd [1] [nM] | IC50 [2] [nM] | t1/2 Category [1]
CC[C@H](C)[C@@H]1NC(=O)[C@H](CC(C)C)NC(=O)C(C)(C)NC(=O)[C@@H](NC(=O)[C@@H](CC(C)C)NC(=O)[C@H](CCC(=O)O)NC(=O)[C@@H]2CCCN2C(=O)[C@H](Cc2c[nH]c3ccc(Cl)cc23)NC(=O)[C@H](Cc2c[nH]c3ccccc23)NC(=O)[C@H](CC(=O)O)NC(=O)CCC(=O)NCCCOCCOCCOCCCNC(=O)CN2CCN(CC(=O)O)CCN(CC(=O)O)CCN(CC(=O)O)CC2)CSCc2cccc(c2)CSCCNC1=O [GIP-077, DOTA-Ttds-Asp-Trp-5Clw-Pro-Glu-leu-[Cys(3MeBn)-Aib-Leu-Ile-AET]] ({X3-Suc}-DW[Trp(5-Cl)]PE[dL]C[Aib]LI; linker 7-C via X7) | < 1 | < 10 | 
CC[C@H](C)[C@@H]1NC(=O)[C@H](CC(C)C)NC(=O)C(C)(C)NC(=O)[C@@H](NC(=O)[C@@H](CC(C)C)NC(=O)[C@H](CCC(=O)O)NC(=O)[C@@H]2CCCN2C(=O)[C@H](Cc2c[nH]c3ccc(Cl)cc23)NC(=O)[C@H](Cc2c[nH]c3ccccc23)NC(=O)[C@H](CC(=O)O)NC(C)=O)CSCc2cccc(c2)CSC[C@@H](C(=O)NCCCOCCOCCOCCCNC(=O)CCC(=O)N[C@@H](CCCCNC(=O)CN2CCN(CC(=O)O)CCN(CC(=O)O)CCN(CC(=O)O)CC2)C(N)=O)NC1=O [GIP-079, Ac-Asp-Trp-5Clw-Pro-Glu-leu-[Cys(3MeBn)-Aib-Leu-Ile-Cys]-Ttds-Lys(DOTA)-NH2] (Ac-DW[Trp(5-Cl)]PE[dL]C[Aib]LIC-X5; linker 7-11 via mXylylene) | < 1 | < 10 | A (t1/2 values>15 min)
CC[C@H](C)[C@@H]1NC(=O)[C@H](CC(C)C)NC(=O)C(C)(C)NC(=O)[C@@H](NC(=O)[C@@H](CC(C)C)NC(=O)[C@H](CCC(=O)O)NC(=O)[C@@H]2C[C@@H](N)CN2C(=O)[C@H](Cc2c[nH]c3ccc(Cl)cc23)NC(=O)[C@H](Cc2c[nH]c3ccccc23)NC(=O)[C@H](CC(=O)O)NC(=O)CCC(=O)NCCCOCCOCCOCCCNC(=O)CN2CCN(CC(=O)O)CCN(CC(=O)O)CCN(CC(=O)O)CC2)CSCc2cccc(c2)CSCCNC1=O [GIP-095, DOTA-Ttds-Asp-Trp-5Clw-Tap-Glu-leu-[Cys(3MeBn)-Aib-Leu-Ile-AET]] ({X3-Suc}-DW[Trp(5-Cl)][Pro(4R-NH2)]E[dL]C[Aib]LI; linker 7-C via X7) | < 1 | < 10 | A (t1/2 values>15 min)
CC[C@H](C)[C@@H]1NC(=O)[C@H](CC(C)C)NC(=O)C(C)(C)NC(=O)[C@@H](NC(=O)[C@@H](CC(C)C)NC(=O)[C@H](CCC(=O)O)NC(=O)[C@@H]2C[C@H](N)CN2C(=O)[C@H](Cc2c[nH]c3ccc(Cl)cc23)NC(=O)[C@H](Cc2c[nH]c3ccccc23)NC(=O)[C@H](CC(=O)O)NC(=O)CCC(=O)NCCCOCCOCCOCCCNC(=O)CN2CCN(CC(=O)O)CCN(CC(=O)O)CCN(CC(=O)O)CC2)CSCc2cccc(c2)CSCCNC1=O [GIP-096, DOTA-Ttds-Asp-Trp-5Clw-4Ap-Glu-leu-[Cys(3MeBn)-Aib-Leu-Ile-AET]] ({X3-Suc}-DW[Trp(5-Cl)][Pro(4S-NH2)]E[dL]C[Aib]LI; linker 7-C via X7) | < 1 | < 10 | A (t1/2 values>15 min)
CC[C@H](C)[C@@H]1NC(=O)[C@H](CC(C)C)NC(=O)C2(CCN(C(C)=O)CC2)NC(=O)[C@@H](NC(=O)[C@@H](CC(C)C)NC(=O)[C@H](CCC(=O)O)NC(=O)[C@@H]2CCCN2C(=O)[C@H](Cc2c[nH]c3ccc(Cl)cc23)NC(=O)[C@H](Cc2c[nH]c3ccccc23)NC(=O)[C@H](CC(=O)O)NC(=O)CCC(=O)NCCCOCCOCCOCCCNC(=O)CN2CCN(CC(=O)O)CCN(CC(=O)O)CCN(CC(=O)O)CC2)CSCc2cccc(c2)CSCCNC1=O [GIP-097, DOTA-Ttds-Asp-Trp-5Clw-Pro-Glu-leu-[Cys(3MeBn)-Apc(Ac)-Leu-Ile-AET]] ({X3-Suc}-DW[Trp(5-Cl)]PE[dL]C[Api](Ac)LI; linker 7-C via X7) | < 1 | < 10 | A (t1/2 values>15 min)
